Results taken from patent US4302472A, “Substituted N-(β-alkoxy-ethyl)-N-(4-phenoxy-benzyl)-dichloro-acetamides and process for their preparation” (Farmitalia Carlo Erba S.p.A., priority 1977, dated 1981).

System: amoebae within the intestinal wall
Assay: Activity on amoebae within the intestinal wall
Details: in vivo

| Compound | activity on amoebae within the intestinal wall |
| --- | --- |
| CCOCCN(Cc1ccc(Oc2ccc(NC(=O)CN)cc2)cc1)C(=O)C(Cl)Cl [N-(β-ethoxy-ethyl)-N-[4-phenoxy-(4'-glycinylamino)-benzyl]-dichloroacetamide] | active on amoebae within the intestinal wall itself |

System: not listed separately
Assay: Absorption
Details: in vivo

| absorption | Compound |
| --- | --- |
| absorbed to a greater extent | CCOCCN(Cc1ccc(Oc2ccc(NC(=O)CN)cc2)cc1)C(=O)C(Cl)Cl [N-(β-ethoxy-ethyl)-N-[4-phenoxy-(4'-glycinylamino)-benzyl]-dichloroacetamide] |

System: Entamoeba histolytica Meah
Assay: In vivo antiamebic activity in intestinal infection in the rat
Parameters: species or system albino rats (strain:Wistar CFHB); key to Mean Score: mean score, 0 = no amoebae/ulceration to 5 = >half cecum ulcerated
Details: 6.2 mg/kg × 5 times, by gavage; 20 animals; score 0 (no amoebae, no ulceration) to 5; vehicle control 3.5
Procedure: The in vivo antiamebic activity in the intestinal infection was determined with a method similar to the method described by Jones (Ann.trop.Med.Paras., 40, 130-140, 1946), as reported hereunder. Young, specific pathogen free albino rats (strain:Wistar CFHB) weighing 30-35 g and fed on a low-protein diet, were infected by intracecal injection with a suspension of trophozoites of Entamoaba histolytica Meah (250,000/rat) containing 3% of Wilson […] mucin. The substances under test and the reference products were administered in serial doses, by gavage twice a day for 21/2 days. The therapeutic effect was determined on the fifth day after infection on the basis of the presence or absence of amebic ulcers in the cecal mucosa and of viable amoebae in the cecal mucosa and in the fecal content of the cecum.
Each animal was assigned a score, according to the following scale:
score 0=no amoebae, no ulceration;
score 1=from 1 to 20 amoebae per faecal smear; no amoeba in the scrape of caecal mucosa; no ulceration;
score 2=from 20 to a very large number of amoebae per smear of feces; no ameoba in the mucosal scrape; no ulceration;
score 3=amoebae originating from microscopic lesions of the cecal mucosa;
score 4=microscopic lesions of the cecal mucosa;
score 5=more than half the cecum ulcerated by amoebic lesions.
The antiamebic activity was expressed both as ED50 calculated according to the number of animals totally free of amoebae (score=0) and as mean score for each dose level.

| Compound | Mean Score |
| --- | --- |
| CCOCCN(Cc1ccc(Oc2ccc(N)cc2)cc1)C(=O)C(Cl)Cl [Compound A, N-(β-ethoxy-ethyl)-N-[4-phenoxy-(4'-amino)-benzyl]-dichloroacetamide] | 1.6 |
| CCOCCN(Cc1ccc(Oc2ccc([N+](=O)[O-])cc2)cc1)C(=O)C(Cl)Cl [Etofamide] | 3.3 |

Same assay, conditions: 12.5 mg/kg × 5 times, by gavage; 20 animals; score 0 (no amoebae, no ulceration) to 5; vehicle control 3.5

| Compound | Mean Score |
| --- | --- |
| CCOCCN(Cc1ccc(Oc2ccc(N)cc2)cc1)C(=O)C(Cl)Cl [Compound A, N-(β-ethoxy-ethyl)-N-[4-phenoxy-(4'-amino)-benzyl]-dichloroacetamide] | 1.1 |
| CCOCCN(Cc1ccc(Oc2ccc([N+](=O)[O-])cc2)cc1)C(=O)C(Cl)Cl [Etofamide] | 1.6 |

Same assay, conditions: 25 mg/kg × 5 times, by gavage; 20 animals; score 0 (no amoebae, no ulceration) to 5; vehicle control 3.5

| Compound | Mean Score |
| --- | --- |
| CCOCCN(Cc1ccc(Oc2ccc(N)cc2)cc1)C(=O)C(Cl)Cl [Compound A, N-(β-ethoxy-ethyl)-N-[4-phenoxy-(4'-amino)-benzyl]-dichloroacetamide] | 1.0 |
| CCOCCN(Cc1ccc(Oc2ccc([N+](=O)[O-])cc2)cc1)C(=O)C(Cl)Cl [Etofamide] | 1.3 |

Same assay, conditions: 50 mg/kg × 5 times, by gavage; 20 animals; score 0 (no amoebae, no ulceration) to 5; vehicle control 3.5

| Compound | Mean Score |
| --- | --- |
| CCOCCN(Cc1ccc(Oc2ccc(N)cc2)cc1)C(=O)C(Cl)Cl [Compound A, N-(β-ethoxy-ethyl)-N-[4-phenoxy-(4'-amino)-benzyl]-dichloroacetamide] | 0.5 |
| CCOCCN(Cc1ccc(Oc2ccc([N+](=O)[O-])cc2)cc1)C(=O)C(Cl)Cl [Etofamide] | 1.0 |

Same assay, conditions: Entamoeba histolytica, po; calculated on the number of animals with score = 0; rat, by gavage twice a day for 21/2 days

| Compound | ED50 |
| --- | --- |
| CCOCCN(Cc1ccc(Oc2ccc(N)cc2)cc1)C(=O)C(Cl)Cl [Compound A, N-(β-ethoxy-ethyl)-N-[4-phenoxy-(4'-amino)-benzyl]-dichloroacetamide] | 19 mg/kg |
| CCOCCN(Cc1ccc(Oc2ccc([N+](=O)[O-])cc2)cc1)C(=O)C(Cl)Cl [Etofamide] | 29 mg/kg |

System: not listed separately
Assay: Approximate acute toxicity (LD50) in the mouse, single administration per os
Details: in vivo, po, measured on the seventh day
Procedure: The toxicity of the compounds of the invention is quite negligible. For example, for the compounds A and B mentioned in the foregoing Tables the approximate acute toxicity (LD50) in the mouse, determined with single administration of increasing doses and measured on the seventh day of treatment, was, per os, much higher than 800 mg/kg. Similar LD50 are found also for the other compounds of the invention, in particular for the compounds: […]

| Compound | LD50 at 168 h |
| --- | --- |
| CCOCCN(Cc1ccc(Oc2ccc(N)cc2)cc1)C(=O)C(Cl)Cl [Compound A, N-(β-ethoxy-ethyl)-N-[4-phenoxy-(4'-amino)-benzyl]-dichloroacetamide] | > 800 mg/kg |

System: Entamoeba histolytica Meah
Assay: In vitro antiamebic activity by serial dilutions in monophasic Pavlova medium
Type: cell-based
Details: Dosage I; 48 hours, 37° C.
Procedure: The in vitro activity on Entamoeba histolytica Meah was determined on the products under test and on reference compounds, by the method of serial dilutions (ratio 1:1.5) in monophasic Pavlova medium with inoculation of 30,000 protozoa/ml and with incubation at 37° C. for 48 hours.
The level of activity of the compounds was determined by means of direct microscopical examination at 125 and 500 magnifications of the entire sediment of each culture. The results were expressed as minimal amoebicidal concentration in μg/ml.

| Compound | minimal amoebicidal concentration |
| --- | --- |
| CCOCCN(Cc1ccc(Oc2ccc(N)cc2)cc1)C(=O)C(Cl)Cl [Compound A, N-(β-ethoxy-ethyl)-N-[4-phenoxy-(4'-amino)-benzyl]-dichloroacetamide] | 0.017 µg/mL |
| CCOCCN(Cc1ccc(Oc2ccc([N+](=O)[O-])cc2)cc1)C(=O)C(Cl)Cl [Etofamide] | 0.026 µg/mL |

Same assay, conditions: Dosage II; 48 hours, 37° C.

| Compound | minimal amoebicidal concentration |
| --- | --- |
| CCOCCN(Cc1ccc(Oc2ccc(N)cc2)cc1)C(=O)C(Cl)Cl [Compound A, N-(β-ethoxy-ethyl)-N-[4-phenoxy-(4'-amino)-benzyl]-dichloroacetamide] | 0.017 µg/mL |
| CCOCCN(Cc1ccc(Oc2ccc([N+](=O)[O-])cc2)cc1)C(=O)C(Cl)Cl [Etofamide] | 0.026 µg/mL |

Same assay, conditions: Dosage III; 48 hours, 37° C.

| Compound | minimal amoebicidal concentration |
| --- | --- |
| CCOCCN(Cc1ccc(Oc2ccc(N)cc2)cc1)C(=O)C(Cl)Cl [Compound A, N-(β-ethoxy-ethyl)-N-[4-phenoxy-(4'-amino)-benzyl]-dichloroacetamide] | 0.017 µg/mL |
| CCOCCN(Cc1ccc(Oc2ccc([N+](=O)[O-])cc2)cc1)C(=O)C(Cl)Cl [Etofamide] | 0.058 µg/mL |

Same assay, conditions: Dosage IV; 48 hours, 37° C.

| Compound | minimal amoebicidal concentration |
| --- | --- |
| CCOCCN(Cc1ccc(Oc2ccc(N)cc2)cc1)C(=O)C(Cl)Cl [Compound A, N-(β-ethoxy-ethyl)-N-[4-phenoxy-(4'-amino)-benzyl]-dichloroacetamide] | 0.026 µg/mL |
| CCOCCN(Cc1ccc(Oc2ccc([N+](=O)[O-])cc2)cc1)C(=O)C(Cl)Cl [Etofamide] | 0.058 µg/mL |

Same assay, conditions: Dosage IX; 48 hours, 37° C.

| Compound | minimal amoebicidal concentration |
| --- | --- |
| CCOCCN(Cc1ccc(Oc2ccc(N)cc2)cc1)C(=O)C(Cl)Cl [Compound A, N-(β-ethoxy-ethyl)-N-[4-phenoxy-(4'-amino)-benzyl]-dichloroacetamide] | 0.026 µg/mL |
| CCOCCN(Cc1ccc(Oc2ccc([N+](=O)[O-])cc2)cc1)C(=O)C(Cl)Cl [Etofamide] | 0.058 µg/mL |

Same assay, conditions: Dosage V; 48 hours, 37° C.

| Compound | minimal amoebicidal concentration |
| --- | --- |
| CCOCCN(Cc1ccc(Oc2ccc(N)cc2)cc1)C(=O)C(Cl)Cl [Compound A, N-(β-ethoxy-ethyl)-N-[4-phenoxy-(4'-amino)-benzyl]-dichloroacetamide] | 0.011 µg/mL |
| CCOCCN(Cc1ccc(Oc2ccc([N+](=O)[O-])cc2)cc1)C(=O)C(Cl)Cl [Etofamide] | 0.026 µg/mL |

Same assay, conditions: Dosage VI; 48 hours, 37° C.

| Compound | minimal amoebicidal concentration |
| --- | --- |
| CCOCCN(Cc1ccc(Oc2ccc(N)cc2)cc1)C(=O)C(Cl)Cl [Compound A, N-(β-ethoxy-ethyl)-N-[4-phenoxy-(4'-amino)-benzyl]-dichloroacetamide] | 0.011 µg/mL |
| CCOCCN(Cc1ccc(Oc2ccc([N+](=O)[O-])cc2)cc1)C(=O)C(Cl)Cl [Etofamide] | 0.017 µg/mL |

Same assay, conditions: Dosage VII; 48 hours, 37° C.

| Compound | minimal amoebicidal concentration |
| --- | --- |
| CCOCCN(Cc1ccc(Oc2ccc(N)cc2)cc1)C(=O)C(Cl)Cl [Compound A, N-(β-ethoxy-ethyl)-N-[4-phenoxy-(4'-amino)-benzyl]-dichloroacetamide] | 0.026 µg/mL |
| CCOCCN(Cc1ccc(Oc2ccc([N+](=O)[O-])cc2)cc1)C(=O)C(Cl)Cl [Etofamide] | 0.039 µg/mL |

Same assay, conditions: Dosage VIII; 48 hours, 37° C.

| Compound | minimal amoebicidal concentration |
| --- | --- |
| CCOCCN(Cc1ccc(Oc2ccc(N)cc2)cc1)C(=O)C(Cl)Cl [Compound A, N-(β-ethoxy-ethyl)-N-[4-phenoxy-(4'-amino)-benzyl]-dichloroacetamide] | 0.017 µg/mL |
| CCOCCN(Cc1ccc(Oc2ccc([N+](=O)[O-])cc2)cc1)C(=O)C(Cl)Cl [Etofamide] | 0.017 µg/mL |

Same assay, conditions: Dosage X; 48 hours, 37° C.

| Compound | minimal amoebicidal concentration |
| --- | --- |
| CCOCCN(Cc1ccc(Oc2ccc(N)cc2)cc1)C(=O)C(Cl)Cl [Compound A, N-(β-ethoxy-ethyl)-N-[4-phenoxy-(4'-amino)-benzyl]-dichloroacetamide] | 0.026 µg/mL |
| CCOCCN(Cc1ccc(Oc2ccc([N+](=O)[O-])cc2)cc1)C(=O)C(Cl)Cl [Etofamide] | 0.039 µg/mL |

Same assay, conditions: mean of Dosage I-X; 48 hours, 37° C.

| Compound | minimal amoebicidal concentration, mean |
| --- | --- |
| CCOCCN(Cc1ccc(Oc2ccc(N)cc2)cc1)C(=O)C(Cl)Cl [Compound A, N-(β-ethoxy-ethyl)-N-[4-phenoxy-(4'-amino)-benzyl]-dichloroacetamide] | 0.019 µg/mL |
| CCOCCN(Cc1ccc(Oc2ccc([N+](=O)[O-])cc2)cc1)C(=O)C(Cl)Cl [Etofamide] | 0.036 µg/mL |
